Earlier results in US5690961A, “Acidic polysaccharides crosslinked with polycarboxylic acids and their uses” (Hercules Incorporated, priority 1994, dated 1997).

Conditions: in vivo

Substance: hyaluronic acid
- half-life of hyaluronic acid injected in a joint: about 13 hours
